Experimental data as given in PubChem BioAssay AID1259408 (Genetic Toxicology Data Bank (GENE-TOX), 2018).
Active and inactive are the calls of the source. How the calls were made is not given here.

Test system: GENE-TOX genotoxicity assays, various organisms and cells
Assay: GENE-TOX mutagenicity studies
Conditions: for call: Assay Type: In vivo carcinogenicity studies
[1] = Species/Cell Type: Salmonella typhimurium (one or more of the five standard strains: TA98, TA100, TA1535, TA1537, and TA1538), Assay Type: Histidine reverse gene mutation, Ames assay, Assay Code: SAL+, Evaluation Type: Evaluation A (Pre-1980)
[2] = Species/Cell Type: Nonhuman, Assay Code: CCG+, Evaluation Type: Evaluation A (Pre-1980)
[3] = Species/Cell Type: Human, Assay Type: Sister-chromatid exchange (SCE) in vitro, Assay Code: SC1T, Evaluation Type: Evaluation B (Post-1980)
[4] = Species/Cell Type: Mammalian polychromatic erythrocytes, Assay Type: Micronucleus test, chromosome aberrations, Assay Code: MNTT, Evaluation Type: Evaluation A (Pre-1980)
[5] = Species/Cell Type: Salmonella typhimurium (one or more of the five standard strains: TA98, TA100, TA1535, TA1537, and TA1538), Assay Type: Histidine reverse gene mutation, Ames assay, Assay Code: SAL+*, Activation: With metabolic activation, Evaluation Type: Evaluation A (Pre-1980)
[6] = Species/Cell Type: Nonhuman, Assay Type: Sister-chromatid exchange (SCE) in vitro, Assay Code: SC2T, Evaluation Type: Evaluation B (Post-1980)
[7] = Species/Cell Type: Salmonella typhimurium (one or more of the five standard strains: TA98, TA100, TA1535, TA1537, and TA1538), Assay Type: Histidine reverse gene mutation, Ames assay, Assay Code: SAL-, Evaluation Type: Evaluation A (Pre-1980)
[8] = Species/Cell Type: Chinese hamster ovary (CHO) cells, Assay Type: Forward gene mutation at the HPRT locus, Assay Code: CHO+, Evaluation Type: Evaluation B (Post-1980)

## NC(=O)c1ncn([C@@H]2O[C@H](CO)[C@@H](O)[C@H]2O)c1O
Species/Cell Type: Nonhuman, Assay Type: Sister-chromatid exchange (SCE) in vitro, Assay Code: SC2+D, Dose Response: With dose response, Evaluation Type: Evaluation A (Pre-1980)
  mutagenic call: active; positive

## O=CNc1nc(-c2ccc([N+](=O)[O-])s2)cs1
[1]
  mutagenic call: active; positive

## c1ccc2cc3c(cc2c1)-c1cccc2cccc-3c12
[2]
  call: active; positive

## c1cc2ccc3cc4c(c5ccc(c1)c2c35)[C@H]1O[C@H]1CC4
Species/Cell Type: Chinese hamster lung (V79) cells, Assay Type: Forward gene mutation at the HPRT or ouabain locus, Assay Code: V79+, Evaluation Type: Evaluation A (Pre-1980)
  mutagenic call: active; positive
Species/Cell Type: Mouse prostate cells, Assay Type: Cell transformation, Assay Code: CTM-, Evaluation Type: Evaluation A (Pre-1980)
  mutagenic call: inactive; negative
Species/Cell Type: Nonhuman, Assay Code: CCGT, Evaluation Type: Evaluation A (Pre-1980)
  call: no conclusion
[1]
  mutagenic call: active; positive

## Nc1ncnc2c1ncn2[C@@H]1O[C@H](CO[C@H]2[C@H](O)[C@@H](O)[C@@H](O[C@@H](C(=O)O)[C@H](O)[C@H](OP(=O)(O)O)[C@H](O)C(=O)O)O[C@@H]2CO)[C@@H](O)[C@H]1O
Species/Cell Type: Plant, Assay Type: Micronucleus test, chromosome aberrations, Assay Code: MNP+, Evaluation Type: Evaluation A (Pre-1980)
  mutagenic call: active; positive

## O=S(O)S(=O)O
Species/Cell Type: Human lymphocytes, Assay Type: Sister-chromatid exchange (SCE) in vitro, Assay Code: SCLT, Evaluation Type: Evaluation B (Post-1980)
  mutagenic call: no conclusion
[3]
  mutagenic call: no conclusion

## c1cc2ccc3ccc(C4CO4)c4ccc(c1)c2c34 (stereo unspecified)
[1]
  mutagenic call: active; positive

## Nc1nc(NO)c2[nH]cnc2n1
Species/Cell Type: Escherichia coli WP2, Assay Type: Tryptophan reverse gene mutation, Assay Code: WP2T, Evaluation Type: Evaluation A (Pre-1980)
  mutagenic call: no conclusion
Species/Cell Type: Escherichia coli WP2 UVRA, Assay Type: Tryptophan reverse gene mutation, Assay Code: WPUT, Evaluation Type: Evaluation A (Pre-1980)
  mutagenic call: no conclusion
Species/Cell Type: Neurospora crassa, Assay Type: Forward gene mutation, Assay Code: NEF+, Evaluation Type: Evaluation A (Pre-1980)
  mutagenic call: active; positive

## CCCCCc1cc(O)c2c(c1)OC(C)(C)[C@@H]1CCC(C)=C[C@@H]21
Species/Cell Type: Fischer rat embryo (RLV/1706) cells, Assay Type: Cell transformation, viral enhanced, Assay Code: CTR+, Evaluation Type: Evaluation A (Pre-1980)
  mutagenic call: active; positive
Species/Cell Type: Human diploid fibroblasts, Assay Type: Unscheduled DNA synthesis (UDS) in vitro, DNA effects, Assay Code: UDH-, Evaluation Type: Evaluation A (Pre-1980)
  mutagenic call: inactive; negative
Species/Cell Type: Human lymphocytes or leukocytes, Assay Type: Chromosome aberrations in vivo, Assay Code: CY8-, Evaluation Type: Evaluation A (Pre-1980)
  mutagenic call: inactive; negative
Species/Cell Type: Human lymphocytes, Assay Type: Sister-chromatid exchange (SCE) in vivo, Assay Code: SCY+, Evaluation Type: Evaluation B (Post-1980)
  mutagenic call: active; positive
Species/Cell Type: Human, Assay Type: Sister-chromatid exchange (SCE) in vitro, Assay Code: SC1-, Evaluation Type: Evaluation A (Pre-1980)
  mutagenic call: inactive; negative
Species/Cell Type: Mammalian polychromatic erythrocytes, Assay Type: Micronucleus test, chromosome aberrations, Assay Code: MNT+, Evaluation Type: Evaluation B (Post-1980)
  mutagenic call: active; positive
[4]
  mutagenic call: no conclusion
Species/Cell Type: Mouse, Sex: Male, Assay Type: Sperm morphology, Assay Code: SPI+, Evaluation Type: Evaluation A (Pre-1980)
  mutagenic call: active; positive

## COc1ccc(Cn2ccnc2/C=C/c2ccc([N+](=O)[O-])o2)cc1
Species/Cell Type: Neurospora crassa, Assay Type: Reverse gene mutation, Assay Code: NER+, Evaluation Type: Evaluation A (Pre-1980)
  mutagenic call: active; positive

## CC1CCc2c1ccc1c2ccc2ccccc21 (stereo unspecified)
[5]
  mutagenic call: active; positive

## O=Nc1ccc2ccccc2c1
[1]
  mutagenic call: active; positive

## Oc1cccc(O)c1
Species/Cell Type: Allium cepa, Assay Type: Chromosome aberrations, Assay Code: ALC+, Evaluation Type: Evaluation A (Pre-1980)
  mutagenic call: active; positive
Species/Cell Type: Human lymphocytes, Assay Type: Sister-chromatid exchange (SCE) in vitro, Assay Code: SCL-, Evaluation Type: Evaluation B (Post-1980)
  mutagenic call: inactive; negative
Species/Cell Type: Human, Assay Type: Sister-chromatid exchange (SCE) in vitro, Assay Code: SC1-, Evaluation Type: Evaluation B (Post-1980)
  mutagenic call: inactive; negative
[4]
  mutagenic call: no conclusion
Species/Cell Type: Neurospora crassa, Assay Type: Aneuploidy, chromosome aberrations, Assay Code: NEN-, Evaluation Type: Evaluation A (Pre-1980)
  mutagenic call: inactive; negative
[6]
  mutagenic call: no conclusion
Species/Cell Type: Nonhuman, Assay Type: Sister-chromatid exchange (SCE) in vivo, Assay Code: SC3-, Evaluation Type: Evaluation B (Post-1980)
  mutagenic call: inactive; negative
[7]
  mutagenic call: inactive; negative

## CCc1cc(C(N)=S)ccn1
[3]
  mutagenic call: no conclusion

## CN(C)CCC=C1c2ccccc2C2OC2c2ccccc21 (stereo unspecified)
Species/Cell Type: Salmonella typhimurium (one or more of the five standard strains: TA98, TA100, TA1535, TA1537, and TA1538), Assay Type: Histidine reverse gene mutation, Ames assay, Assay Code: SALT, Evaluation Type: Evaluation A (Pre-1980)
  mutagenic call: no conclusion

## O=c1[nH]c(=O)n([C@H]2C[C@H](O)[C@@H](CO)O2)cc1Cl
[8]
  mutagenic call: active; positive
Species/Cell Type: Nonhuman, Assay Type: Sister-chromatid exchange (SCE) in vitro, Assay Code: SC2+D, Dose Response: With dose response, Evaluation Type: Evaluation B (Post-1980)
  mutagenic call: active; positive

## CCN(Cc1cccc(S(=O)(=O)O)c1)c1ccc(C(=C2C=CC(=[N+](CC)Cc3cccc(S(=O)(=O)O)c3)C=C2)c2ccccc2S(=O)(=O)[O-])cc1
Species/Cell Type: Bacillus subtilis (H17 vs M45), Assay Type: Rec-assay, spot test, DNA effects (bacterial DNA repair), Assay Code: REW-, Evaluation Type: Evaluation A (Pre-1980)
  mutagenic call: inactive; negative
[7]
  mutagenic call: inactive; negative

## ClCCCl
[8]
  mutagenic call: active; positive
Species/Cell Type: Drosophila melanogaster, Assay Type: Aneuploidy, sex chromosome gain, chromosome aberrations, Assay Code: DAG+F, Evaluation Type: Evaluation A (Pre-1980)
  mutagenic call: active; positive
Species/Cell Type: Drosophila melanogaster, Assay Type: Aneuploidy, whole sex chromosome loss, chromosome aberrations, Assay Code: DAC+F, Evaluation Type: Evaluation A (Pre-1980)
  mutagenic call: active; positive
Species/Cell Type: Drosophila melanogaster, Assay Type: Sex-linked recessive lethal gene mutation, Assay Code: SRL+, Evaluation Type: Evaluation A (Pre-1980)
  mutagenic call: active; positive
Species/Cell Type: Escherichia coli polA (W3119 vs P3478), Assay Type: Rec-assay, DNA effects (bacterial DNA repair), Assay Code: RE1+, Evaluation Type: Evaluation A (Pre-1980)
  mutagenic call: active; positive
[2]
  call: active; positive
[5]
  mutagenic call: active; positive
Species/Cell Type: Salmonella typhimurium, Assay Type: Forward and reverse gene mutation, body fluid assay, Assay Code: BFU+, Evaluation Type: Evaluation A (Pre-1980)
  mutagenic call: active; positive
Species/Cell Type: Syrian hamster embryo (SA7/SHE) cells, Assay Type: Cell transformation, viral enhanced, Assay Code: CT7+, Evaluation Type: Evaluation A (Pre-1980)
  mutagenic call: active; positive

## C1=CC2C3C=CC(C3)C2C1 (stereo unspecified)
Species/Cell Type: Saccharomyces cerevisiae, Assay Type: Mitotic recombination or gene conversion, Assay Code: YEH-, Evaluation Type: Evaluation A (Pre-1980)
  mutagenic call: inactive; negative
[7]
  mutagenic call: inactive; negative

## CC#CC#CC#Cc1ccccc1
[6]
  mutagenic call: no conclusion
